Publication PMC3395594, “Rational Engineering of Enzyme Allosteric Regulation through Sequence Evolution Analysis” (PLoS Computational Biology, 2012)
Like-named read-outs stand apart in the source and are kept apart here.

How the values were obtained:
Test in all cases: malachite green phosphate release assay, fit to nonlinear noncompetitive inhibition
Type in all cases: biochemical
[1] = molecular target: T1, E. coli FBPase (fructose-1,6-bisphosphatase) (Escherichia coli, UniProt P0A993, K104Q/K218Q/R132I/Y210F)
T1 construct: gene fbp; full-length fbp in pET101/D-TOPO, reverse primer without stop (C-terminal vector tag with polyhistidine, no cleavage told), expressed in E. coli BL21 (DE3), Ni-NTA purified
T1 sequence (P0A993 whole entry K104Q/R132I/Y210F/K218Q): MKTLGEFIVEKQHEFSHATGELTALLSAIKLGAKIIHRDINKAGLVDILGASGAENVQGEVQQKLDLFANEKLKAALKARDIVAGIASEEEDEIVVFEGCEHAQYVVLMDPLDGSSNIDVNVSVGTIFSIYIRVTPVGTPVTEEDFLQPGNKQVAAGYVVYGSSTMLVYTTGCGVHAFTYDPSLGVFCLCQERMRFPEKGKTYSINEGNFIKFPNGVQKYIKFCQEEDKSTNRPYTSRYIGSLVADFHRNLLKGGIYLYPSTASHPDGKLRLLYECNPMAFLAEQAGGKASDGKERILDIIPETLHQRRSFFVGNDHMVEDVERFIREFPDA

[2] = molecular target: T2, E. coli FBPase (fructose-1,6-bisphosphatase) (Escherichia coli, UniProt P0A993)
T2 construct: gene fbp; full-length fbp in pET101/D-TOPO, reverse primer without stop (C-terminal vector tag with polyhistidine, no cleavage told), expressed in E. coli BL21 (DE3), Ni-NTA purified
T2 sequence (P0A993 1-332): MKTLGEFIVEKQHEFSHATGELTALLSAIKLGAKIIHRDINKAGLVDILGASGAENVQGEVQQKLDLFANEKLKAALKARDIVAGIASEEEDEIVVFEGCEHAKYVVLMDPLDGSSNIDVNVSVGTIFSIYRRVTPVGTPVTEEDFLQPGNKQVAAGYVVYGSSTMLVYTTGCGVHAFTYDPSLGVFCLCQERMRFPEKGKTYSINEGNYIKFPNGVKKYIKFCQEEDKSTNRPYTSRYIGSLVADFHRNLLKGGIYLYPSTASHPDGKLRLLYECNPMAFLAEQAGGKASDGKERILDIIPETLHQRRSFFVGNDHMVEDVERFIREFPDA
Description: malachite green phosphate release assay, fit to nonlinear noncompetitive inhibition on E. coli FBPase (fructose-1,6-bisphosphatase) | Comparison of inhibition constants of wild-type and mutant FBPase by the allosteric inhibitor, AMP. | Comparison of inhibition constant of wild-type and mutant FBPase by the allosteric inhibitor, Glc-6-P.

[3] = molecular target: T3, E. coli FBPase (fructose-1,6-bisphosphatase) (Escherichia coli, UniProt P0A993, K104Q)
T3 construct: gene fbp; full-length fbp in pET101/D-TOPO, reverse primer without stop (C-terminal vector tag with polyhistidine, no cleavage told), expressed in E. coli BL21 (DE3), Ni-NTA purified
T3 sequence (P0A993 whole entry K104Q): as the sequence (P0A993 whole entry K104Q/R132I/Y210F/K218Q) above, with I132R, F210Y, Q218K counted along it

[4] = molecular target: T4, E. coli FBPase (fructose-1,6-bisphosphatase) (Escherichia coli, UniProt P0A993, R132I)
T4 construct: gene fbp; full-length fbp in pET101/D-TOPO, reverse primer without stop (C-terminal vector tag with polyhistidine, no cleavage told), expressed in E. coli BL21 (DE3), Ni-NTA purified
T4 sequence (P0A993 whole entry R132I): as the sequence (P0A993 whole entry K104Q/R132I/Y210F/K218Q) above, with Q104K, F210Y, Q218K counted along it

[5] = molecular target: T5, E. coli FBPase (fructose-1,6-bisphosphatase) (Escherichia coli, UniProt P0A993, K104Q/R132I)
T5 construct: gene fbp; full-length fbp in pET101/D-TOPO, reverse primer without stop (C-terminal vector tag with polyhistidine, no cleavage told), expressed in E. coli BL21 (DE3), Ni-NTA purified
T5 sequence (P0A993 whole entry K104Q/R132I): as the sequence (P0A993 whole entry K104Q/R132I/Y210F/K218Q) above, with F210Y, Q218K counted along it

[6] = molecular target: T6, E. coli FBPase (fructose-1,6-bisphosphatase) (Escherichia coli, UniProt P0A993, Y210F/K218Q); conditions: allosteric Glc-6-P site, with respect to FBP, Mg2+, pH 7.5, 25 C
T6 construct: gene fbp; full-length fbp in pET101/D-TOPO, reverse primer without stop (C-terminal vector tag with polyhistidine, no cleavage told), expressed in E. coli BL21 (DE3), Ni-NTA purified
T6 sequence (P0A993 whole entry Y210F/K218Q): as the sequence (P0A993 whole entry K104Q/R132I/Y210F/K218Q) above, with Q104K, I132R counted along it

[7] = molecular target: T7, E. coli FBPase (fructose-1,6-bisphosphatase) (Escherichia coli, UniProt P0A993, Y210F); conditions: allosteric Glc-6-P site, with respect to FBP, Mg2+, pH 7.5, 25 C
T7 construct: gene fbp; full-length fbp in pET101/D-TOPO, reverse primer without stop (C-terminal vector tag with polyhistidine, no cleavage told), expressed in E. coli BL21 (DE3), Ni-NTA purified
T7 sequence (P0A993 whole entry Y210F): as the sequence (P0A993 whole entry K104Q/R132I/Y210F/K218Q) above, with Q104K, I132R, Q218K counted along it

[8] = molecular target: T8, E. coli FBPase (fructose-1,6-bisphosphatase) (Escherichia coli, UniProt P0A993, K104Q/R132I/Y210F/K218Q); conditions: allosteric Glc-6-P site; with respect to FBP; noncompetitive; Mg2+; pH 7.5, 25 C
T8 construct: gene fbp; full-length fbp in pET101/D-TOPO, reverse primer without stop (C-terminal vector tag with polyhistidine, no cleavage told), expressed in E. coli BL21 (DE3), Ni-NTA purified
T8 sequence (P0A993 whole entry K104Q/R132I/Y210F/K218Q): as the sequence (P0A993 whole entry K104Q/R132I/Y210F/K218Q) above

[9] = molecular target: T9, E. coli FBPase (fructose-1,6-bisphosphatase) (Escherichia coli, UniProt P0A993, K218Q); conditions: allosteric Glc-6-P site, with respect to FBP, Mg2+, pH 7.5, 25 C
T9 construct: gene fbp; full-length fbp in pET101/D-TOPO, reverse primer without stop (C-terminal vector tag with polyhistidine, no cleavage told), expressed in E. coli BL21 (DE3), Ni-NTA purified
T9 sequence (P0A993 whole entry K218Q): as the sequence (P0A993 whole entry K104Q/R132I/Y210F/K218Q) above, with Q104K, I132R, F210Y counted along it

Row | Ki [1] [µM] | Ki [2] [µM] | Ki [3] [µM] | Ki [4] [µM] | Ki [5] [µM] | Ki [6] [µM] | Ki [7] [µM] | Ki [8] [µM] | Ki [9] [µM] | Ki ([2]; allosteric Glc-6-P site, with respect to FBP, noncompetitive, Mg2+, pH 7.5, 25 C) [µM] | Structure (SMILES)
1 | 1680 ± 299 | 10.1 ± 0.8 | 419 ± 54.1 | 151 ± 12.9 | 1460 ± 215 |  |  |  |  |  | Nc1ncnc2c1ncn2[C@@H]1O[C@H](COP(=O)(O)O)[C@@H](O)[C@H]1O [AMP]
2 |  |  |  |  |  | 20400 ± 7300 | 13100 ± 2900 | 21100 ± 2900 | 14100 ± 3900 | 800 ± 200 | O=P(O)(O)OC[C@H]1OC(O)[C@H](O)[C@@H](O)[C@@H]1O (stereo partly shown) [Glc-6-P]
